Test results reported in patent US6656920B2, “Composition and method for promoting oral health” (Amarillo Biosciences, Inc., priority 2000, dated 2003).

Tests used:
[1] = test system: subjects with primary Sjögren's syndrome; experiment: Phase 3 trial, 24 weeks, IFN lozenges versus 200 mg CAM placebo lozenges; type: in vivo, human
Text: (§1) The purposes of our investigations were to examine the safety and efficacy of four different dosages of IFN lozenges compared to placebo in subjects with primary Sjögren's syndrome over a 12-week period in a Phase 2 trial, and to examine the best dose from our Phase 2 trial in a 24-week Phase 3 trial. The primary endpoints of our Phase 2 and Phase 3 trials were measurements of unstimulated saliva and stimulated saliva and subjective assessments of dry mouth. The IFN-α was delivered to the patients in 200 mg lozenges consisting of crystalline anhydrous maltose (CAM). The placebo was 200 mg CAM without IFN in both (Phase 2 and Phase 3) clinical trials. […] The IFN-treated group did even better (73% and 81%, respectively), but the beneficial effect of CAM on UWS was striking. […] Not only will this benefit patients with Sjögren's syndrome, but CAM should benefit people with dry mouth from other causes.

[2] = test system: subjects with primary Sjögren's syndrome; experiment: Phase 2 trial, 12 weeks, four dosages of IFN lozenges versus CAM placebo; type: in vivo, human; conditions: Phase 2, placebo (200 mg CAM) treated patients
Text: as §1

[3] = test system: subjects with Sjögren's syndrome; conditions: no sustained benefit in controlled clinical trials; cited from earlier work
[4] = test system: subjects with Sjögren's syndrome; conditions: at 24 weeks, 30 subjects per group, p<0.001; cited from earlier work

## OC[C@H]1O[C@H](O[C@H]2[C@H](O)[C@@H](O)[C@H](O)O[C@@H]2CO)[C@H](O)[C@@H](O)[C@@H]1O [CAM, crystalline anhydrous maltose]
[1]; 200 mg maltose lozenges three times daily
  overall result of lozenge administration: Good results
[1]; Phase 3, after 6 months of daily treatment, 200 mg lozenges
  patients with an increase in unstimulated whole saliva (UWS): 63.3%
[2]
  patients with an increase in UWS by 12 weeks: 9 of 18

## CN(Cc1cc(Br)cc(Br)c1N)C1CCCCC1 [bromhexine]
[3]
  salivary output: increase salivary output transiently

## CC1OC2(CS1)CN1CCC2CC1 (stereo not shown) [cevimeline]
[3]
  salivary output: increase salivary output transiently

## CC[C@@H]1C(=O)OC[C@@H]1Cc1cncn1C [pilocarpine]
[3]
  salivary output: increase salivary output transiently

## sucralfate
[4]
  subjects with ≧100% increase from baseline in stimulated whole salivary flow: 3%
